Source: ChEMBL document CHEMBL1134092, “alpha-Keto heterocycle inhibitors of fatty acid amide hydrolase: carbonyl group modification and alpha-substitution” (Bioorg Med Chem Lett, 2001)
pKi: −log10 of the molar value.

Molecular target: T1, Fatty-acid amide hydrolase 1 (Rattus norvegicus, UniProt P97612)
T1 sequence (P97612 whole entry): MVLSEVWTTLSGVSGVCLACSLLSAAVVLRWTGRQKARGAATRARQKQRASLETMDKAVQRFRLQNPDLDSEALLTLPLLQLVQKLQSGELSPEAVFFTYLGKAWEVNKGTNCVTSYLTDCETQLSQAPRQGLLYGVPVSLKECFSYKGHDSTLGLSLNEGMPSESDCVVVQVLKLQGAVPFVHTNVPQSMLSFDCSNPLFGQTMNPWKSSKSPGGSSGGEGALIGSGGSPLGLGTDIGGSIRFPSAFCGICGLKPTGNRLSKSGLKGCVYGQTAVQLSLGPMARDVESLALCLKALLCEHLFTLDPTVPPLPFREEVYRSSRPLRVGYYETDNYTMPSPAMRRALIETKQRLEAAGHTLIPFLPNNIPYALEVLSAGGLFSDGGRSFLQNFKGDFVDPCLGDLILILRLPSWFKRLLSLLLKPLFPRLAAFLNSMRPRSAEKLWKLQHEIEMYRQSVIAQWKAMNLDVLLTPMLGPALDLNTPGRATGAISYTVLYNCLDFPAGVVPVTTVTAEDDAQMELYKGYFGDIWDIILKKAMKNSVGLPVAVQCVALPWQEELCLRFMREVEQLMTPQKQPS
Assay: Inhibitory activity against fatty acid amide hydrolase (FAAH)

| pKi | Compound |
| --- | --- |
| 7.00 | CCCCCCCC/C=C\CCCCCCCC(=O)c1ncco1 |
| 8.64 | CCCCCCCC/C=C\CCCCCCCC(=O)c1nc2ncccc2o1 |
| 6.82 | CCCCCCCC/C=C\CCCCCCCC(=O)c1nc2ccccc2o1 |
